In patent US20240207265A1, “TREATMENT OF CNS DISEASES WITH sGC STIMULATORS” (Tisento Therapeutics Inc., priority 2021, published 2024):

How the values were obtained:
[1] = tested on: MPTP-induced cognitive deficits; assay: Chronic low dose MPTP-lesioned macaque model of cognitive deficits in Parkinson's disease; assay type: in vivo, cynomolgus macaques; conditions: 3.0 mg/kg oral daily monotherapy
Source text: This study was a non-GLP study in the chronic low dose MPTP-lesioned macaque model of Parkinson's disease. This model has been described in the literature (https://www.ncbi.nlm.nih.gov/pmc/articles/PMC3282499/). The study was designed to assess effects of Compound I-14, administered as monotherapy, on performance of the following cognitive tasks: variable delayed response (VDR), continuous performance (CPT), visual discrimination reversal learning (SDR) and object retrieval (OR). The study was conducted in animals that had received prior treatment with low doses of MPTP and were known to have difficulties in the performance of the above-mentioned tasks. These studies utilised four male cynomolgus macaques with MPTP-induced cognitive deficits. The study had 4 parts. The first part of the study was to collect baseline data from the four animals on the four tasks to be studied. The second part of the study was to administer vehicle (sterile, filtered distilled water) over a 16 day period and collect vehicle data on the four tasks once per week for two weeks. In the third part of the study, Compound I-14 was administered orally daily for five days and then data were collected on the four tasks once per week for two weeks, with continued daily administration of Compound I-14 (3.0 mg/kg) 2 hrs. prior to each days testing. In the final part of the study, there was a 9 day washout period and then data were collected on the four tasks once per week for two weeks. One dose of Compound I-14 was assessed as monotherapy (3.0 mg/kg) following five days of pre-dosing and daily dosing for two weeks. The effects of the treatment on cognitive performance was assessed 2 hrs. after daily drug administration and during drug washout. MPTP-HCl was administered by i.v. injection at doses ranging from 0.05 mg/kg to 0.30 mg/kg, 2 to 3 times per week for several months. MPTP administration continued until cognitive deficits appeared with minimal/mild parkinsonian motor impairment. Animals were considered “cognitively impaired” if they show at least a 15% decrease in cognitive task performance from pre-MPTP baseline levels. Because response to MPTP is somewhat idiosyncratic, MPTP was administered to effect (i.e., development of cognitive deficits and then development of motor deficits), rather than given for a particular duration of exposure or a particular cumulative dose of MPTP. […] The measure recorded for each session is: 1) total number of trials needed to learn the initial discrimination (i.e. reach the specified criterion of 14/16 correct, and; 2) total number of trials needed to learn (i.e., reach the same criterion as mentioned above) the reversal in which the previously negative (unrewarded) stimulus is now the positive (rewarded) stimulus (i.e., reach criterion). […]

[2] = Non-human primate CSF pharmacokinetics (Study B), cisterna magna versus lumbar sampling; assay type: in vivo, cynomolgus monkeys
Description: The objective of this study was to investigate the pharmacokinetics of Compound I-14 after administration of a single […] bolus or oral gavage dose to cynomolgus monkeys on Day 1 and to evaluate differences in pharmacokinetic values when comparing CSF collected at the cisterna magna (as in Example 10A) versus lumbar locations.
Single doses of Compound I-14 were administered intravenously as a bolus injection of a solution at 0.15 mg/kg and orally by gavage as a suspension at 0.5 mg/kg to a group of four female cynomolgus monkeys in a crossover design. Plasma samples were collected at 0.25 (15 min), 0.5 (30 min), 1, 2, 3, 6, 8, 12, 24, 32, and 48 h following the IV and PO doses. CSF samples were collected at 3 and 24 h for all animals from the cisterna magna in groups 1 and 2 and the lumbar from groups 3 and 4. Sample extracts were prepared by protein precipitation and Compound I-14 concentrations were measured using LC-MS/MS. Pharmacokinetic parameters were calculated.

geomean ratio of CSF concentration to unbound concentration in plasma ([2]; 3 hours, IV dosing, cisterna magna sampling): C (2<Kp,uu≤3=C)
geomean ratio of CSF concentration to unbound concentration in plasma ([2]; 3 hours, IV dosing, lumbar sampling): C (2<Kp,uu≤3=C)
geomean ratio of CSF concentration to unbound concentration in plasma ([2]; 3 hours, oral dosing, cisterna magna sampling): C (2<Kp,uu≤3=C)
geomean ratio of CSF concentration to unbound concentration in plasma ([2]; 3 hours, oral dosing, lumbar sampling): C (2<Kp,uu≤3=C)
geomean ratio of CSF concentration to unbound concentration in plasma ([2]; 24 hours, IV dosing, cisterna magna sampling): B (1<Kp,uu≤2=B)
geomean ratio of CSF concentration to unbound concentration in plasma ([2]; 24 hours, IV dosing, lumbar sampling): B (1<Kp,uu≤2=B)
geomean ratio of CSF concentration to unbound concentration in plasma ([2]; 24 hours, oral dosing, cisterna magna sampling): C (2<Kp,uu≤3=C)
geomean ratio of CSF concentration to unbound concentration in plasma ([2]; 24 hours, oral dosing, lumbar sampling): C (2<Kp,uu≤3=C)
Compound: Cc1cc(F)c(Cc2nc(-c3ncc(F)c(O)n3)cn3ccnc23)cc1F [Compound I-14, 5-fluoro-2-(8-(2,5-difluoro-4-methylbenzyl)imidazo[1,2-a]pyrazin-6-yl)pyrimidin-4-ol]
Simple discrimination performance [1]: not significantly changed
number of trials needed to reach criterion to learn the discrimination reversal [1]: significantly reduced
animals failing to learn the discrimination reversal ([1]; four animals): none of the animals failed to learn the reversal
SDR (discrimination reversal) performance ([1]; tested 2 hrs after dosing): significantly improved performance
